Laboratory results taken from ChEMBL document CHEMBL1142248, “Structure-activity relationships and pharmacokinetic parameters of quinoline acylsulfonamides as potent and selective antagonists of the EP(4) receptor” (Bioorg Med Chem Lett, 2008).
One block for each compound: values may come before it.

Columns and labels:
[1] = Volume of distribution at steady state in dog at 10 mg/kg, po or 2 mg/kg, iv; format: ADME, organism-based, Canis lupus familiaris; settings: in vivo, read-out: Vdss
[2] = Clearance in dog at 10 mg/kg, po or 2 mg/kg, iv; format: ADME, organism-based, Canis lupus familiaris; settings: in vivo
[3] = Half life in guinea pig at 5 mg/kg, iv; format: ADME, organism-based, Cavia porcellus; set-up: dose 5 mg/kg, route intravenous; settings: in vivo
[4] = Half life in dog at 2 mg/kg, iv; format: ADME, organism-based, Canis lupus familiaris; set-up: dose 2 mg/kg, route intravenous; settings: in vivo
[5] = Volume of distribution at steady state in guinea pig at 20 mg/kg, po or 5 mg/kg, iv; format: ADME, organism-based, Cavia porcellus; settings: in vivo, read-out: Vdss
[6] = Bioavailability in guinea pig at 20 mg/kg, po or 5 mg/kg, iv; format: ADME, organism-based, Cavia porcellus; settings: in vivo
[7] = Half life in rat at 5 mg/kg, iv; format: ADME, organism-based; set-up: dose 5 mg/kg, route intravenous; settings: in vivo
[8] = Bioavailability in dog at 10 mg/kg, po or 2 mg/kg, iv; format: ADME, organism-based, Canis lupus familiaris; settings: in vivo
[9] = Clearance in guinea pig at 20 mg/kg, po or 5 mg/kg, iv; format: ADME, organism-based, Cavia porcellus; settings: in vivo
[10] = Bioavailability in rat at 20 mg/kg, po or 5 mg/kg, iv; format: ADME, organism-based; settings: in vivo
[11] = Volume of distribution at steady state in rat at 20 mg/kg, po or 5 mg/kg, iv; format: ADME, organism-based; settings: in vivo, read-out: Vdss
[12] = Clearance in rat at 20 mg/kg, po or 5 mg/kg, iv; format: ADME, organism-based; settings: in vivo
[13] = Bioavailability in dog at 4 mg/kg, po or 5 mg/kg, iv; format: ADME, organism-based, Canis lupus familiaris; settings: in vivo
[14] = Bioavailability in rat at 20 mg/kg, po or 10 mg/kg, iv; format: ADME, organism-based; settings: in vivo
[15] = Clearance in rat at 20 mg/kg, po or 10 mg/kg, iv; format: ADME, organism-based; settings: in vivo
[16] = Clearance in mouse at 100 mg/kg, po or 10 mg/kg, iv; format: ADME, organism-based; settings: in vivo
[17] = Metabolic stability in human hepatocytes at 20 uM after 2 hrs; format: ADME, cell-based, Hepatocyte; settings: read-out: Stability
[18] = Half life in rhesus monkey at 2 mg/kg, iv; format: ADME, organism-based, Macaca mulatta; set-up: dose 2 mg/kg, route intravenous; settings: in vivo
[19] = Volume of distribution at steady state in rhesus monkey at 4 mg/kg, po or 2 mg/kg, iv; format: ADME, organism-based, Macaca mulatta; settings: in vivo, read-out: Vdss
[20] = Volume of distribution at steady state in mouse at 100 mg/kg, po or 10 mg/kg, iv; format: ADME, organism-based; settings: in vivo, read-out: Vdss
[21] = Metabolic stability in dog hepatocytes at 20 uM after 2 hrs; format: ADME, cell-based, Canis lupus familiaris, Hepatocyte; settings: read-out: Stability
[22] = Volume of distribution at steady state in dog at 4 mg/kg, po or 5 mg/kg, iv; format: ADME, organism-based, Canis lupus familiaris; settings: in vivo, read-out: Vdss
[23] = Clearance in rhesus monkey at 4 mg/kg, po or 2 mg/kg, iv; format: ADME, organism-based, Macaca mulatta; settings: in vivo
[24] = Half life in mouse at 10 mg/kg, iv; format: ADME, organism-based; set-up: dose 10 mg/kg, route intravenous; settings: in vivo
[25] = Metabolic stability in rhesus monkey hepatocytes at 20 uM after 2 hrs; format: ADME, cell-based, Macaca mulatta, Hepatocyte; settings: read-out: Stability
[26] = Clearance in dog at 4 mg/kg, po or 5 mg/kg, iv; format: ADME, organism-based, Canis lupus familiaris; settings: in vivo
[27] = Half life in dog at 5 mg/kg, iv; format: ADME, organism-based, Canis lupus familiaris; set-up: dose 5 mg/kg, route intravenous; settings: in vivo
[28] = Bioavailability in rhesus monkey at 4 mg/kg, po or 2 mg/kg, iv; format: ADME, organism-based, Macaca mulatta; settings: in vivo
[29] = Volume of distribution at steady state in rat at 20 mg/kg, po or 10 mg/kg, iv; format: ADME, organism-based; settings: in vivo, read-out: Vdss
[30] = Bioavailability in mouse at 100 mg/kg, po or 10 mg/kg, iv; format: ADME, organism-based; settings: in vivo
[31] = Half life in rat at 10 mg/kg, iv; format: ADME, organism-based; set-up: dose 10 mg/kg, route intravenous; settings: in vivo
[32] = Metabolic stability in rat hepatocytes at 20 uM after 2 hrs; format: ADME, cell-based, Hepatocyte; settings: read-out: Stability
[33] = molecular target: Prostaglandin E2 receptor EP2 subtype (Homo sapiens, UniProt P43116); test: Binding affinity to human EP2 receptor expressed in HEK293 cells; format: cell-based
[34] = molecular target: T1, Prostaglandin D2 receptor (Homo sapiens, UniProt Q13258); test: Binding affinity to human DP receptor expressed in HEK293 cells; format: cell-based
T1 sequence (Q13258 whole entry): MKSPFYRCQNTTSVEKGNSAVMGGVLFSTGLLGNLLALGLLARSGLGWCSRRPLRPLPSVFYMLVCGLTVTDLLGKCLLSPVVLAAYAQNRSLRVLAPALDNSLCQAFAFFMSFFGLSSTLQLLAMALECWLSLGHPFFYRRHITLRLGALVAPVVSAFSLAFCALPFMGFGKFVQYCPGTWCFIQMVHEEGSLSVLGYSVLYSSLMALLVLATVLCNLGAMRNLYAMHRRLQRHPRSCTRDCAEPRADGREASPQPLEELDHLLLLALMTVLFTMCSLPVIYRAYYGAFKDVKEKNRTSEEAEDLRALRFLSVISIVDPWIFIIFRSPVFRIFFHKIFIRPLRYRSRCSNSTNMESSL

Thromboxane A2 receptor = molecular target: T2, Thromboxane A2 receptor (Homo sapiens, UniProt P21731); test: Binding affinity to human TP receptor expressed in HEK293 cells; format: cell-based
T2 sequence (P21731 whole entry): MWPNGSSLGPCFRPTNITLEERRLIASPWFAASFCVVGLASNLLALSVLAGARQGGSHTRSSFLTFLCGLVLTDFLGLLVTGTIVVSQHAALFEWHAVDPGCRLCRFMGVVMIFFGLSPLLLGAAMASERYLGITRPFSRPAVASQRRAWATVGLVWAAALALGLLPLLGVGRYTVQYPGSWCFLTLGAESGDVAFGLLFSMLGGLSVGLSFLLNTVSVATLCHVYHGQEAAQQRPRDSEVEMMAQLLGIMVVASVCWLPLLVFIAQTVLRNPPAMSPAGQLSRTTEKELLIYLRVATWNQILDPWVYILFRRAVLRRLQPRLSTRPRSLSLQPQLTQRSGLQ

[35] = molecular target: Prostaglandin F2-alpha receptor (Homo sapiens, UniProt P43088); test: Binding affinity to human FP receptor expressed in HEK293 cells; format: cell-based
[36] = molecular target: T3, Prostaglandin E2 receptor EP4 subtype (Homo sapiens, UniProt P35408); test: Binding affinity to human EP4 receptor expressed in HEK293 cells; format: cell-based
[37] = molecular target: T4, Prostaglandin E2 receptor EP3 subtype (Homo sapiens, UniProt P43115); test: Binding affinity to human EP3 receptor expressed in HEK293 cells; format: cell-based
T4 sequence (P43115 whole entry): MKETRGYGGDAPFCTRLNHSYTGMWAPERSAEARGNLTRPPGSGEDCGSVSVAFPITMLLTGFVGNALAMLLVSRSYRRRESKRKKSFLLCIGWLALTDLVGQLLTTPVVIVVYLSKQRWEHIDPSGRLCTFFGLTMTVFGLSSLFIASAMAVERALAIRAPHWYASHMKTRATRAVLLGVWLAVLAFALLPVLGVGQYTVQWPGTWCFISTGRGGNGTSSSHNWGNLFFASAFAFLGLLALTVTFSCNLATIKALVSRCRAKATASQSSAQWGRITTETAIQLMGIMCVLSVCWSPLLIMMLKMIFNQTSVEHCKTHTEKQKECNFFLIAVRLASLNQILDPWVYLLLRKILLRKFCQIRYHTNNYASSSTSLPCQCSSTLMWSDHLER

[38] = molecular target: T5, Prostaglandin E2 receptor EP1 subtype (Homo sapiens, UniProt P34995); test: Binding affinity to human EP1 receptor expressed in HEK293 cells; format: cell-based
T5 sequence (P34995 whole entry): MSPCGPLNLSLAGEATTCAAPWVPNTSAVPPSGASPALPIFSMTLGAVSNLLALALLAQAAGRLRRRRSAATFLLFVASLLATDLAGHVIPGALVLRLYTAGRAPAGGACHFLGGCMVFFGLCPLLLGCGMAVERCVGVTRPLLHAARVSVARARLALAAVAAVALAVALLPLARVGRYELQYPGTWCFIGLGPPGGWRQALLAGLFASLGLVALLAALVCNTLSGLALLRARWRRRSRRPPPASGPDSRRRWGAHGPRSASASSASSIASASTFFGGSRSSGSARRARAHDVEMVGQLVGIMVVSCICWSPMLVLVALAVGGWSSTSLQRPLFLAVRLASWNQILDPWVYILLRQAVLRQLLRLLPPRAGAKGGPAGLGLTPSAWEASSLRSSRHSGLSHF

Prostacyclin receptor = Prostacyclin receptor (Homo sapiens, UniProt P43119); test: Binding affinity to human IP receptor expressed in HEK293 cells; format: cell-based
[39] = molecular target: T3, Prostaglandin E2 receptor EP4 subtype; test: Binding affinity to human EP4 receptor expressed in HEK293 cells in presence of 10% human serum; format: cell-based
Rattus norvegicus = organism: Rattus norvegicus; test: Antiinflammatory activity against adjuvant-induced rat arthritis model; format: functional

T3 sequence (P35408 whole entry): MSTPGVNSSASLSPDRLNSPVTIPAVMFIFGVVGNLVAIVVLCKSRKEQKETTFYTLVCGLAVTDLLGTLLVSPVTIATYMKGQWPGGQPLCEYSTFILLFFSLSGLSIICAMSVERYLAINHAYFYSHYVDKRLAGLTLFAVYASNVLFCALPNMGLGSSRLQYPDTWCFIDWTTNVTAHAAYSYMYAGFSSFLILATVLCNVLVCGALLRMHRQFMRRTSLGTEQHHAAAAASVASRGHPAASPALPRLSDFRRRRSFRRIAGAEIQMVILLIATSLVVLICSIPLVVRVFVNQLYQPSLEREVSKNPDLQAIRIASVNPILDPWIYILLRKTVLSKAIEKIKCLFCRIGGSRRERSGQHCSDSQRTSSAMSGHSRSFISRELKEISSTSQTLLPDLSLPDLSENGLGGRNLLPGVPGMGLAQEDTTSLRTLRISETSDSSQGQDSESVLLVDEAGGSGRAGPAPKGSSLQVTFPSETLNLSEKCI
Prostaglandin E2 receptor EP2 subtype, sequence (P43116 whole entry): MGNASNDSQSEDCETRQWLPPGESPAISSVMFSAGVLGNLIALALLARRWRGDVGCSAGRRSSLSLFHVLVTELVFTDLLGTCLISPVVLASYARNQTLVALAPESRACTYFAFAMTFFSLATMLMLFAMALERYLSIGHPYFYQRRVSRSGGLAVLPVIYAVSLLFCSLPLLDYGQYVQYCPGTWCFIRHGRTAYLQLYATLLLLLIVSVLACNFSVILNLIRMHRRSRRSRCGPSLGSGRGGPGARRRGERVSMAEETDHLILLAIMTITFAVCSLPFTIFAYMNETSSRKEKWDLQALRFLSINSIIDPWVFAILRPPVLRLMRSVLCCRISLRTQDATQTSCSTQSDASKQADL
Prostacyclin receptor, sequence (P43119 whole entry): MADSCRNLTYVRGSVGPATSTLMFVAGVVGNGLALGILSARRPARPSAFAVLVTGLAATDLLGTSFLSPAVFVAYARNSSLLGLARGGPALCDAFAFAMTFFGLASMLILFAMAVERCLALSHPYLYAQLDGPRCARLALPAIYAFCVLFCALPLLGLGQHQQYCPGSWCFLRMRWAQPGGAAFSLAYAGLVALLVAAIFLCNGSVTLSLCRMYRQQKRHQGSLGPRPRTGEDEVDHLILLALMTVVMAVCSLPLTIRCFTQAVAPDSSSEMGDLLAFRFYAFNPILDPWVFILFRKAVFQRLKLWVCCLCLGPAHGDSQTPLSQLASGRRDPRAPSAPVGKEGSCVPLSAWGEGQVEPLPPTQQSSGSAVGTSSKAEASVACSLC
Prostaglandin F2-alpha receptor, sequence (P43088 whole entry): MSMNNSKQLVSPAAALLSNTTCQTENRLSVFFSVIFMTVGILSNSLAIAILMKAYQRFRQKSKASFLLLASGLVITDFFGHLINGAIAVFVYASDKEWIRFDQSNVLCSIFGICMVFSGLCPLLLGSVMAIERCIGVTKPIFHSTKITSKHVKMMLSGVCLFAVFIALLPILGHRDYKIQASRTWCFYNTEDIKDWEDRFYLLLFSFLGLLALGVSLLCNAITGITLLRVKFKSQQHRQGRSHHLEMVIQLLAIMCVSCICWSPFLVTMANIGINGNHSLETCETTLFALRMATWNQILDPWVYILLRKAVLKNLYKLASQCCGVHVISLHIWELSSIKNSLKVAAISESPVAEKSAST

Vd [1]: 0.1 L/kg
clearance [2]: 0.4 mL/min/kg
half-life [3]: 8.6 h
half-life [4]: 4.1 h
Vd [5]: 0.6 L/kg
bioavailability [6]: 18%
half-life [7]: 2.7 h
bioavailability [8]: 49%
clearance [9]: 3.6 mL/min/kg
bioavailability [10]: > 99%
Vd [11]: 1.6 L/kg
clearance [12]: 7.8 mL/min/kg
SMILES: CCOc1c2c(c(OCC)c3ncccc13)CN(c1ccc(CS(=O)(=O)[N-]C(=O)Cc3ccccc3OC)cc1C)C2=O.[Na+]

bioavailability [13]: 69%
bioavailability [14]: 73%
clearance [15]: 0.6 mL/min/kg
clearance [16]: 2.6 mL/min/kg
remaining at 2 h, 20 µM [17]: 36%
half-life [18]: 3.8 h
Vd [19]: 0.3 L/kg
Vd [20]: 0.7 L/kg
remaining at 2 h, 20 µM [21]: 20%
Vd [22]: 0.2 L/kg
clearance [23]: 2 mL/min/kg
half-life [24]: 3.5 h
remaining at 2 h, 20 µM [25]: 39%
clearance [26]: 0.2 mL/min/kg
half-life [27]: 13.2 h
bioavailability [28]: 40%
Vd [29]: 0.7 L/kg
bioavailability [30]: 44%
half-life [31]: 14.8 h
remaining at 2 h, 20 µM [32]: 6%
SMILES: COc1cccc(OC)c1C1(C(=O)[N-]S(=O)(=O)Cc2ccc(N3Cc4c(c(OCC(F)(F)F)c5cccnc5c4OCC(F)(F)F)C3=O)c(C)c2)CC1.[Na+]

Ki [33]: 1900 nM
Ki [34]: 1200 nM
Ki (Thromboxane A2 receptor): 630 nM
Ki [35]: 2000 nM
Ki [36]: 0.74 nM
Ki [37]: 4000 nM
Ki [38]: > 7000 nM
Ki (Prostacyclin receptor): > 7000 nM
Ki [39]: 3.6 nM
SMILES: CCOc1c2c(c(OCC)c3ncccc13)CN(c1ccc(CS(=O)(=O)NC(=O)Cc3ccccc3OC)cc1C)C2=O

Ki [33]: 300 nM
Ki [34]: 53 nM
Ki (Thromboxane A2 receptor): 39 nM
Ki [35]: 340 nM
Ki [36]: 0.79 nM
Ki [37]: 2700 nM
Ki [38]: > 9000 nM
Ki (Prostacyclin receptor): 2000 nM
Ki [39]: 1.6 nM
SMILES: COc1cccc(OC)c1C1(C(=O)NS(=O)(=O)Cc2ccc(N3Cc4c(c(OCC(F)(F)F)c5cccnc5c4OCC(F)(F)F)C3=O)c(C)c2)CC1
ED50 (Rattus norvegicus): 5 µg/kg
